According to patent publication US20100138935A1, “Detection of cellular stress” (priority 2004, published 2010):
Where two headings read alike, the source gives them in different places.

What was measured:
[1] = test system: HO-1-LacZ (HOZ) transgene; assay: LacZ transgene expression in HO-1-LacZ (HOZ) reporter mice; assay type: in vivo, mouse; details: female HOZ mice, 13 mg/kg i.p. in isotonic saline, 8 hours or 24 hours
Protocol: (§1) Each test compound was dissolved in the appropriate vehicle solution and administered by intraperitoneal injection (i.p.) at a dose volume of 10 ml/kg. Wherever possible, both naive (untreated) and vehicle-treated controls were used. If a test item whose toxicity in the mouse is poorly characterised was to be used, a dose-ranging experiment was conducted prior to the main experiment. The test item was administered to a single mouse which was monitored for any adverse effects 6-8 hours and 24 hours later. If the single dose ranging mouse tolerated the treatment, the remaining mice were administered the test item according to the protocol.
(§2) Two slices of tissue (˜2 mm thickness) were removed for histochemical analysis of LacZ expression according to methods described below.
(§3) Tissues were washed with PBS and prefixed in 0.2% glutaraldehyde in PBS containing 0.1M MgCl2 and 5 mM EDTA, pH 7.3, for 4 hours at 4° C. on a shaker. After fixation, the tissues were transferred to 20% Sucrose solution and dehydrated overnight at 4° C. The next day they were embedded in cryo-M-bed medium on cork discs and lowered slowly into liquid nitrogen then transferred to −80° C. until sections were required.
(§4) Cryostat sample and chamber temperatures were set to −30° C. The sample to be sectioned was placed in the cryostat one hour prior to sectioning to allow equilibration at the appropriate temperature. Frozen sections (10 μm) were cut and placed on aminopropyltriethoxysilane (APES) coated slides.
(§5) Prior to staining, sections were incubated in 0.2% glutaraldehyde (as above) for 10 minutes at room temperature then washed twice (5 min each) in PBS containing 2 mM MgCl2, 0.01% sodium deoxycholate and 0.02% % Nonidet-P40. Sections were then […] the same wash solution containing 1 mg/ml X-gal, 5 mM potassium ferrocyanide and 5 mM potassium ferricyanide overnight at 37° C. then washed twice in PBS for 5 min, allowed to air dry and mounted in aqueous mounting medium (Hydromount). Slides were evaluated and photographed. • Frozen Method 2
Tissues were excised, immediately placed into chilled 4% paraformaldehyde containing 0.1% glutaraldehyde and 2 mM MgCl2 in PBS, and fixed in the above solution for 3 hours at 2-8° C. with gentle shaking. Fixed tissues were washed at 2-8° C. for 3×5 minutes with chilled PBS containing 2 mM MgCl2 and dehydrated overnight at 2-8° C. in PBS containing 2 mM MgCl2 and 30% (w/v) sucrose overnight The next day dehydrated tissues were embedded in OCT embedding medium using an isopentane/dry ice bath. Embedded tissues were stored at −70° C. until they could be cryosectioned.
Frozen sections were washed three times for 5 minutes in PBS containing 2 mM MgCl2 at 2-8° C. then 3×30 min in detergent wash (PBS containing 2 mM MgCl2 0.01% Nonidet P40 and 0.1% Sodium Deoxycholate) at 2-8° C. They were then stained overnight in PBS containing 2 mM MgCl2, 0.02% Nonidet P40, 0.1% Sodium Deoxycholate, 5 mM Potassium ferrocyanide, 5 mM Potassium ferricyanide, and 0.1% X-gal at 37° C. The next day, the slides were washed three times for 5 minutes in PBS containing 2 mM MgCl2 followed by three times for 5 minutes in PBS at room temperature. They were equilibrated with 100% ethanol (5 min) and counterstained with Eosin for 1 min at room temperature. Following dehydration and mounting they were evaluated and photographed. • Whole Mount Method
Tissue specimens that had been prefixed in fresh 4% paraformaldehyde were stained immediately using the procedure for “Whole Mount X-Gal Histochemistry of Transgenic Animal Tissues” (see http://www.rodentia.com/wmc/docs/lacZ bible.html), summarised below) was followed, and the post-fixed tissues were transferred to 70% (v/v) ethanol.
Following fixation for one hour in 4% paraformaldehyde, tissues were rinsed three times, for thirty minutes each, with rinse buffer (100 mM sodium phosphate (pH 7.3), 2 mM MgCl2, 0.01% sodium deoxycholate, 0.02% NP-40) at room temperature. […]

HOZ mice [2] = assay: Plasma ALT as a marker of hepatotoxicity in HOZ mice; assay type: in vivo, mouse; details: 13 mg/kg; for Plasma ALT: female
Protocol: (§6) Terminal blood samples were taken by cardiac puncture into lithium/heparin-coated tubes for preparation of plasma. Tissues, as defined in each protocol, were routinely dissected as follows:
(§7) Following removal into tubes suitable for plasma preparation, venous blood samples were mixed on a roller for 10 minutes then cooled on ice. Red blood cells were removed by centrifugation at 2,000 rpm for 10 minutes at 8-10° C. The supernatant (plasma) was transferred to a second tube and stored at −70° C. until required for analysis.
(§8) Plasma samples were analysed for appropriate analytes on a Roche autoanalyser (Cobas Integra 400) according to the manufacturer's instructions. The routine markers measured included: (for liver damage) plasma alanine aminotransferase (ALT), aspartate aminotransferase (AST) and alkaline phosphatase (ALP) and (for kidney damage) plasma creatinine and blood urea nitrogen (BUN).
Two plasma enzyme markers, ALT and AST, were used as markers of hepatotoxicity in HOZ mice treated with cadmium chloride or sodium arsenite. The results of this analysis for HOZ mice treated with 10 mg/kg cadmium chloride are shown in Table 1 and for HOZ mice treated with 2-8 mg/kg cadmium chloride or 13 mg/kg sodium arsenite in Tables 2 and 3.

HOZ mice [3] = assay: Plasma AST as a marker of hepatotoxicity in HOZ mice; assay type: in vivo, mouse; details: female, 13 mg/kg
Protocol: as §6, §7, §8
Two plasma enzyme markers, ALT and AST, were used as markers of hepatotoxicity in HOZ mice treated with cadmium chloride or sodium arsenite. […]

HOZ mice [4] = assay: BUN as a marker of nephrotoxicity in HOZ mice; assay type: in vivo, mouse; details: female, 13 mg/kg
Protocol: as §6, §7, §8
The increase in BUN was 6-fold at 8 hours and 44-fold after 24 hours.

p21-LacZ (WAZ) transgene = assay type: in vivo, mouse
Protocol: as §1, §2
Mouse brains were dissected so as to reveal the dentate gyrus as fully as possible. In the case of the kidneys, one kidney was cut in longitudinal section and the other in transverse section.
as §3, §4, §5
In experiments on WAZ44 mice, single doses of etoposide (of up to 40 mg/kg) were administered i.p. Animals were killed after 24 hours and tissues fixed and stained for LacZ expression.
Acrylamide, at a total dose of 150 mg/kg, induces neuropathy manifesting as partial paralysis approximately 7 days after the start of treatment. The dose may be administered as a single injection or divided; however, the effect depends upon the total dose, and since a single dose of 150 mg/kg is likely to be acutely toxic, a five-day coursed of injections of 30 mg/kg is preferred. Acrylamide intoxication is associated with both central and peripheral effects; the central effects include behavioural changes (increased milk-licking) which occur within two days of dosing, preceding peripheral changes such as reduced hind-limb grip and reduced locomotor activity by up to three weeks (Teal and Evans, 1982). In experiments on WAZ44 mice, five doses of acrylamide (30 mg/kg) were administered i.p.
A frozen section from the brain of an acrylamide-treated WAZ44 mouse was prepared and stained using Frozen Method 1. A dissecting microscope was used to view the slides and generate photomicrographs (a) transverse section of whole brain, original magnification ×10; (b) dentate gyrus and hippocampus, original magnification ×25 (c) cortex, original magnification ×63.
WAZ mice received single i.p. injections of etoposide (40 mg/kg); mercuric chloride (HgCl2, 8.5 mg/kg); lipopolysaccharide (LPS, 1.5 mg/kg) or paracetamol (300 mg/kg). WAZ mice received a single i.p. injection of each compound at a single dose level (see FIG. 5). Twenty-four hours later, the mice were killed and the brains sectioned and stained for LacZ expression.

[5] = dissolved in DMSO, injected intra-peritoneally; cited from earlier work
[6] = test system: HO-1-LacZ reporter transgene in HEK293 cells; assay: Transient transfection of HO-1-LacZ reporter construct into HEK293 cells, induction with haemin; assay type: cell-based, mouse
Text: We have used RedET recombination cloning (Zhang et al., 2000) to produce a HO-1-LacZ reporter transgene. A LacZ-SV40polyA minigene was engineered to contain homologous regions to exons 1 and 2 of the HO-1 gene. This minigene cassette also contains a bacterial Amp gene, at the 3′-end, which was used as a selectable marker during cloning. The minigene was then introduced, by homologous recombination, into a BAC clone containing the mouse HO-1 locus (clone RPCI-23 290L07, HGMP Resource Centre) substituting for the endogenous HO-1 exon1 and intron1 sequences. Thus, the HO-1 promoter would express LacZ from the ATG start codon, in place of the HO-1 protein. The correct position of the LacZ-SV40polyA minigene was confirmed by sequencing both the 5′- and 3′-junction regions. The HO-1 reporter locus, containing most of the HO-1 gene together with 16.5 kb of upstream promoter and 8 kb of 3′ sequence, was then recombined out from the BAC clone into the pACYC low copy number plasmid backbone.

[7] = WAZ mice, single i.p. injection (etoposide 40 mg/kg; HgCl2 8.5 mg/kg; LPS 1.5 mg/kg; paracetamol 300 mg/kg), 24 hours

With `O=[As]O` [Sodium Arsenite, sodium arsenite] the “HOZ transgene expression in liver” value [1] was “expression of the HOZ transgene at both time points”, the “hepatotoxic response (plasma ALT, AST)” value (HOZ mice [2]; HOZ mice) was “did not exhibit a hepatotoxic response” and the “Plasma ALT” value (HOZ mice [2]; 8 hours) was 43.0 u/L. For the same compound, the “Plasma ALT” value (HOZ mice [2]; 24 hours) was 26.7 u/L, the “Plasma AST” value (HOZ mice [3]; 8 hours) was 107.3 u/L and the “Plasma AST” value (HOZ mice [3]; 24 hours) was 67.8 u/L. It also gave a BUN (HOZ mice [4]; 8 hours) of 5.62 and a BUN (HOZ mice [4]; 24 hours) of 3.50.

For `COc1cc([C@@H]2c3cc4c(cc3[C@@H](O[C@@H]3O[C@@H]5CO[C@@H](C)O[C@H]5[C@H](O)[C@H]3O)[C@H]3COC(=O)[C@H]23)OCO4)cc(OC)c1O` [etoposide], the “LacZ transgene expression in tissues” value (p21-LacZ (WAZ) transgene; WAZ44 mice, single doses of up to 40 mg/kg i.p., killed after 24 hours) was “significant expression in the spleen, the thymus and in some regions of the brain”, the “expression of the WAZ transgene in the brain” value (“expression … in the brain” for short) (p21-LacZ (WAZ) transgene; mouse, in vivo) was “high levels of expression” and the “pattern of WAZ transgene induction in the brain” value (“pattern” below) (p21-LacZ (WAZ) transgene; mouse, in vivo) was “induced expression in the same cells within the various regions in the brain”. The LD50 [5] was 40 mg/kg.

With `C=CC1=C(C)c2cc3[n-]c(cc4nc(cc5[n-]c(cc1n2)c(C)c5C=C)C(C)=C4CCC(=O)O)c(CCC(=O)O)c3C.[Cl-].[Fe+3]` [haemin] the “increase in the LacZ labelling index over uninduced control cells” value [6] was 11 fold.

With `[Cl][Hg][Cl]` [mercuric chloride] the “expression … in the brain” value (p21-LacZ (WAZ) transgene; [7]) was “high levels of expression” and the “pattern” value (p21-LacZ (WAZ) transgene; [7]) was “induced expression in the same cells within the various regions in the brain”.

For `CC(=O)Nc1ccc(O)cc1` [paracetamol], the “expression … in the brain” value (p21-LacZ (WAZ) transgene; mouse, in vivo) was “high levels of expression” and the “pattern” value (p21-LacZ (WAZ) transgene; mouse, in vivo) was “distinct pattern of induction within the hippocampus, cerebellum and cortex”.

With lipopolysaccharide [LPS] the “expression … in the brain” value (p21-LacZ (WAZ) transgene; [7]) was “high levels of expression” and the “pattern” value (p21-LacZ (WAZ) transgene; [7]) was “induced expression in the same cells within the various regions in the brain”.
